Assay results taken from ChEMBL document CHEMBL6074686 (Eur J Med Chem, 2025).
Activity calls are given as the source filed them. No cut-off for these calls is given here.

How the values were obtained:
A549 [1] = experiment: Induction of cell cycle arrest in human A549 cells assessed as accumulation of cells at G2/M phase at 40 nM incubated for 24 hrs by PI staining based flow cytometric analysis relative to control; format: functional
SK-OV-3 [2] = experiment: Induction of apoptosis in human SK-OV-3 cells assessed as downregulation of cleaved-PARP expression at 100 nM incubated for 24 hrs by Western blotting analysis; format: functional, cell-based
[3] = Toxicity in female BALB/c nude mouse xenografted with human SK-OV-3 cells assessed as drug tolerance by measuring body weight loss at 15 mg/kg, administered via tail vein for 5 days and measured daily; format: organism-based; settings: in vivo, iv, 120 h, time 5 day
[4] = Toxicity in female BALB/c nude mouse xenografted with human SK-OV-3 cells assessed as pathological changes in lung at 5 to 10 mg/kg, […] via tail vein once every 2 to 3 days by H and E staining based analysis; format: organism-based; settings: in vivo, dose lower 5 mg/kg, time lower 2 day, dose upper 10 mg/kg, time upper 3 day
MCF7 [5] = experiment: Inhibition of cell migration in human MCF7 cells assessed as wound closure ratio at 5 nM incubated for 24 hrs by wound healing assay (reference value: 100%); format: functional; set-up: scale not given: the % may be the effect or the level left
A549 [6] = experiment: Antitumor activity against human A549 cells assessed as reduction in cell viability incubated for 72 hrs by CCK8 assay; format: functional, cell-based; settings: A549, 72 h
SK-OV-3 [7] = experiment: Inhibition of cell migration in human SK-OV-3 cells assessed as wound closure ratio at 3.125 nM incubated for 24 hrs by wound healing assay (reference value: 100%); format: functional; set-up: scale not given: the % may be the effect or the level left
SK-OV-3 [8] = experiment: Induction of cell cycle arrest in human SK-OV-3 cells assessed as increase in G2/M phase cells at 20 nM incubated for 24 hrs PI staining based flow cytometric analysis (reference value: 24.6 +/- 2.0%); format: functional
MCF7 [9] = experiment: Inhibition of cell migration in human MCF7 cells assessed as ratio of migrated cells at 6.25 nM incubated for 24 hrs by crystal violet staining based inverted microscopic analysis (reference value: 100%); format: functional; set-up: scale not given: the % may be the effect or the level left
MCF7 [10] = experiment: Inhibition of colony formation in human MCF7 cells at 25 nM incubated for 72 hrs by crystal violet staining based assay relative to control; format: functional
MCF7 [11] = experiment: Induction of apoptosis in human MCF7 cells assessed as increase in apoptotic cells at 6.25 to 100 nM incubated for 24 hrs by IncuCyte live-cell imaging analysis; format: functional, cell-based; settings: dose 6.25-100 nM
[12] = Toxicity in female BALB/c nude mouse xenografted with human SK-OV-3 cells assessed as drug tolerance by measuring reduction in water intake at 30 mg/kg, administered via tail vein for 5 days and measured daily; format: organism-based; settings: in vivo, iv, 120 h, time 5 day
SK-OV-3 [13] = experiment: Inhibition of cell migration in human SK-OV-3 cells assessed as area of migrated cells at 20 nM incubated for 24 hrs by crystal violet staining based inverted microscopic analysis (reference value: 30.1 +/- 1.3 mm^3); format: functional
SK-OV-3 [14] = experiment: Induction of cell cycle arrest in human SK-OV-3 cells assessed as increase in G2/M phase cells at 5 nM incubated for 24 hrs PI staining based flow cytometric analysis (reference value: 24.6 +/- 2.0%); format: functional
SK-OV-3 [15] = experiment: Induction of cell cycle arrest in human SK-OV-3 cells assessed as downregulation of Cdc-25c expression incubated for 24 hrs by Western blotting analysis; format: functional, cell-based; settings: dose 25-100 nM
SK-OV-3 [16] = experiment: Inhibition of cell migration in human SK-OV-3 cells assessed as ratio of migrated cells at 5 nM incubated for 24 hrs by Transwell assay (reference value: 100 %); format: functional; set-up: scale not given: the % may be the effect or the level left
SK-OV-3 [17] = experiment: Induction of apoptosis in human SK-OV-3 cells assessed as downregulation of Bcl-2 expression incubated for 24 hrs by Western blotting analysis; format: functional, cell-based
SK-OV-3 [18] = experiment: Induction of apoptosis in human SK-OV-3 cells assessed as increase in apoptotic cells incubated for 48 hrs by IncuCyte live-cell imaging analysis; format: functional, cell-based; settings: dose 2.5-40 nM
SK-OV-3 [19] = experiment: Inhibition of cell migration in human SK-OV-3 cells assessed as reduction in wound closure at 6.25 nM incubated for 24 hrs by wound healing assay (reference value: 21.8 +/- 7.6%); format: functional; settings: SK-OV-3, 24 h, values are per cent of control
MCF7 [20] = experiment: Induction of apoptosis in human MCF7 cells assessed as upregulation of cleaved-caspase-3 expression incubated for 24 hrs by Western blotting analysis; format: functional, cell-based
SK-OV-3 [21] = experiment: Inhibition of cell migration in human SK-OV-3 cells assessed as decrease in cell density incubated for 24 hrs by wound healing assay; format: functional, cell-based; settings: dose 3.125-50 nM
[22] = Toxicity in female BALB/c nude mouse xenografted with human SK-OV-3 cells assessed as pathological changes in kidney at 5 to 10 mg/kg, […] via tail vein once every 2 to 3 days by H and E staining based analysis; format: organism-based; settings: in vivo, dose lower 5 mg/kg, time lower 2 day, dose upper 10 mg/kg, time upper 3 day
MCF7 [23] = experiment: Inhibition of colony formation in human MCF7 cells incubated for 72 hrs by crystal violet staining based assay; format: functional, cell-based; settings: dose 3.125-50 nM
MCF7 [24] = experiment: Induction of apoptosis in human MCF7 cells assessed as upregulation of Bcl-2 expression at 100 nM incubated for 24 hrs by Western blotting analysis; format: functional, cell-based
MCF7 [25] = experiment: Inhibition of cell migration in human MCF7 cells assessed as area of migrated cells at 25 nM incubated for 24 hrs by crystal violet staining based inverted microscopic analysis (reference value: 18.5 +/- 0.3 mm^3); format: functional
MCF7 [26] = experiment: Inhibition of cell migration in human MCF7 cells assessed as ratio of migrated cells at 25 nM incubated for 24 hrs by crystal violet staining based inverted microscopic analysis (reference value: 100%); format: functional; set-up: scale not given: the % may be the effect or the level left
SK-OV-3 [27] = experiment: Inhibition of colony formation in human SK-OV-3 cells incubated for 12 days by crystal violet staining based assay; format: functional, cell-based; settings: dose 1.25-20 nM, time 12.0 day
SK-OV-3 [28] = experiment: Inhibition of cell migration in human SK-OV-3 cells assessed as reduction in wound closure at 50 nM incubated for 24 hrs by wound healing assay (reference value: 21.8 +/- 7.6%); format: functional; settings: SK-OV-3, 24 h, values are per cent of control
SK-OV-3 [29] = experiment: Inhibition of cell migration in human SK-OV-3 cells assessed as reduction in wound closure at 25 nM incubated for 24 hrs by wound healing assay (reference value: 21.8 +/- 7.6%); format: functional; settings: SK-OV-3, 24 h, values are per cent of control
[30] = Toxicity in female BALB/c nude mouse xenografted with human SK-OV-3 cells assessed as animal death at 15 mg/kg, administered via tail vein for 5 days and measured daily; format: organism-based; settings: in vivo, iv, 120 h, time 5 day
SK-OV-3 [31] = experiment: Antitumor activity against human SK-OV-3 cells xenografted in female BALB/c nude mouse assessed as tumor growth inhibition at 10 mg/kg, […] via tail vein once every 2 to 3 days; format: functional; settings: time 2-3 day, read-out: TGI
SK-OV-3 [32] = experiment: Inhibition of cell migration in human SK-OV-3 cells assessed as decrease in cell density at 25 to 50 nM incubated for 24 hrs by wound healing assay; format: functional, cell-based; settings: dose 25-50 nM
SK-OV-3 [33] = experiment: Induction of apoptosis in human SK-OV-3 cells assessed as increase in apoptotic cells at 2.5 to 40 nM by IncuCyte live-cell imaging analysis; format: functional, cell-based; settings: dose 2.5-40 nM, time lower 24.0 hrs, time upper […]
SK-OV-3 [34] = experiment: Inhibition of cell migration in human SK-OV-3 cells assessed as area of migrated cells at 5 nM incubated for 24 hrs by crystal violet staining based inverted microscopic analysis (reference value: 30.1 +/- 1.3 mm^3); format: functional

CNc1nc(N2CCCc3cc(OC)ccc32)c2cc(F)ccc2n1
Activity (A549 [1]): 88.8% | Activity (SK-OV-3 [2]): inactive | Activity [3]: Toxic | Activity [4]: Non-toxic | Activity (MCF7 [5]): 97.3% | IC50 (A549 [6]): 2.7 nM | Activity (SK-OV-3 [7]): 104.5% | Activity (SK-OV-3 [8]): 90.6% | Activity (MCF7 [9]): 88.6% | inhibition at 0.025 µM (MCF7 [10]): 32.8% | Activity (MCF7 [11]): Active | Activity [12]: Toxic | Activity (SK-OV-3 [13]): 3.6 mm3 | Activity (SK-OV-3 [14]): 29.6% | Activity (SK-OV-3 [15]): Dose-dependent-effect | Activity (SK-OV-3 [16]): 48.8% | Activity (SK-OV-3 [17]): Active | Activity (SK-OV-3 [18]): Dose-dependent-effect | response, % of control at 0.00625 µM (SK-OV-3 [19]): 18.4% | Activity (MCF7 [20]): Dose-dependent-effect | inhibition (SK-OV-3 [21]): Dose-dependent-effect | Activity [22]: Non-toxic | inhibition (MCF7 [23]): Dose-dependent-effect | Activity (MCF7 [24]): inactive | Activity (MCF7 [25]): 2.4 mm3 | Activity (MCF7 [26]): 13.2% | inhibition (SK-OV-3 [27]): Dose-dependent-effect | response, % of control at 0.05 µM (SK-OV-3 [28]): 4.9% | response, % of control at 0.025 µM (SK-OV-3 [29]): 11.2% | Activity [30]: Non-toxic | inhibition in vivo at 10 mg/kg (SK-OV-3 [31]): 46.2% | inhibition (SK-OV-3 [32]): Active | Activity (SK-OV-3 [33]): Time-dependent-effect | Activity (SK-OV-3 [34]): 14.7 mm3
